Reference: ChEMBL document CHEMBL4308841, “Synthesis, in vitro antiproliferative activity, and kinase inhibitory effects of pyrazole-containing diarylureas and diarylamides” (Eur J Med Chem, 2018)

What was measured:
[1] = tested on: Hs-578T; test: Growth inhibition of human Hs578T cells assessed as cell growth at 100 uM incubated for 48 hrs by sulforhodamine B assay relative to control; type: functional; details: read-out: Activity
[2] = tested on: DU-145; test: Growth inhibition of human DU145 cells assessed as cell growth at 0.01 uM incubated for 48 hrs by sulforhodamine B assay relative to control; type: functional; details: DU-145, 48 h, read-out: Activity
[3] = tested on: COLO 205; test: Growth inhibition of human COLO205 cells incubated for 48 hrs by sulforhodamine B assay; type: functional, cell-based; details: COLO 205, 48 h
[4] = tested on: IGROV-1; test: Growth inhibition of human IGROV1 cells assessed as cell growth at 1 uM incubated for 48 hrs by sulforhodamine B assay relative to control; type: functional; details: IGROV-1, 48 h, read-out: Activity
[5] = tested on: NCI/ADR-RES; test: Growth inhibition of human NCI/ADR-RES cells incubated for 48 hrs by sulforhodamine B assay; type: functional, cell-based
[6] = tested on: LOX IMVI; test: Growth inhibition of human LOXIMVI cells incubated for 48 hrs by sulforhodamine B assay; type: functional
[7] = tested on: NCI-H522; test: Growth inhibition of human NCI-H522 cells assessed as cell growth at 0.01 uM incubated for 48 hrs by sulforhodamine B assay relative to control; type: functional; details: NCI-H522, 48 h, read-out: Activity
[8] = tested on: UACC-257; test: Growth inhibition of human UACC257 cells incubated for 48 hrs by sulforhodamine B assay; type: functional, cell-based; details: UACC-257, 48 h
[9] = tested on: A549; test: Growth inhibition of human A549/ATCC cells assessed as cell growth at 1 uM incubated for 48 hrs by sulforhodamine B assay relative to control; type: functional; details: A549, 48 h, read-out: Activity
[10] = tested on: HOP-62; test: Growth inhibition of human HOP62 cells assessed as cell growth at 1 uM incubated for 48 hrs by sulforhodamine B assay relative to control; type: functional; details: HOP-62, 48 h, read-out: Activity
[11] = tested on: HCT-15; test: Growth inhibition of human HCT15 cells assessed as cell growth at 0.01 uM incubated for 48 hrs by sulforhodamine B assay relative to control; type: functional; details: HCT-15, 48 h, read-out: Activity
[12] = read-out: LC50 (the source's name)
[13] = read-out: pLC50 (the source's name) (converted)

Structure (SMILES): COc1cc(Cl)cc(-c2nn(-c3cccc(NC(=O)c4cccc(C(F)(F)F)c4)c3)cc2-c2ccncc2)c1
- growth at 100 µM [1]: 53%
- growth at 0.01 µM [2]: 109%
- GI50 ([3]; read-out: GI50): 3.37 µM
- CC50 [3, 12]: > 100 µM
- TGI ([3]; read-out: TGI): > 100 µM
- GI50 ([3]; read-out: pGI50 (converted)): 33.9 µM
- CC50 [3, 13]: > 100 µM
- TGI ([3]; read-out: pTGI (converted)): > 100 µM
- growth at 1 µM [4]: 94%
- GI50 ([5]; read-out: GI50): 5.38 µM
- CC50 [5, 12]: > 100 µM
- TGI ([5]; read-out: TGI): > 100 µM
- GI50 ([5]; read-out: pGI50 (converted)): 5.37 µM
- CC50 [5, 13]: > 100 µM
- TGI ([5]; read-out: pTGI (converted)): > 100 µM
- GI50 ([6]; read-out: GI50): 1.57 µM
- CC50 [6, 12]: > 100 µM
- TGI ([6]; read-out: TGI): > 100 µM
- GI50 ([6]; read-out: pGI50 (converted)): 15.8 µM
- CC50 [6, 13]: > 100 µM
- TGI ([6]; read-out: pTGI (converted)): > 100 µM
- growth at 0.01 µM [7]: 51%
- GI50 ([8]; read-out: GI50): > 100 µM
- CC50 [8, 12]: > 100 µM
- TGI ([8]; read-out: TGI): > 100 µM
- GI50 ([8]; read-out: pGI50 (converted)): > 100 µM
- CC50 [8, 13]: > 100 µM
- TGI ([8]; read-out: pTGI (converted)): > 100 µM
- growth at 1 µM [9]: 75%
- growth at 1 µM [10]: 101%
- growth at 0.01 µM [11]: 56%

Structure (SMILES): O=C(Nc1cccc(-n2cc(-c3ccncc3)c(-c3cc(O)cc(Cl)c3)n2)c1)c1ccc(N2CCOCC2)c(C(F)(F)F)c1
- growth at 100 µM [1]: 30%
- growth at 0.01 µM [2]: 100%
- GI50 ([3]; read-out: GI50): 1.75 µM
- CC50 [3, 12]: > 100 µM
- TGI ([3]; read-out: TGI): 64.5 µM
- GI50 ([3]; read-out: pGI50 (converted)): 17.4 µM
- CC50 [3, 13]: > 100 µM
- TGI ([3]; read-out: pTGI (converted)): 64.6 µM
- growth at 1 µM [4]: 91%
- GI50 ([5]; read-out: GI50): 45.9 µM
- CC50 [5, 12]: > 100 µM
- TGI ([5]; read-out: TGI): > 100 µM
- GI50 ([5]; read-out: pGI50 (converted)): 4.57 µM
- CC50 [5, 13]: > 100 µM
- TGI ([5]; read-out: pTGI (converted)): > 100 µM
- GI50 ([6]; read-out: GI50): 1.03 µM
- CC50 [6, 12]: > 100 µM
- TGI ([6]; read-out: TGI): 48.1 µM
- GI50 ([6]; read-out: pGI50 (converted)): 1.02 µM
- CC50 [6, 13]: > 100 µM
- TGI ([6]; read-out: pTGI (converted)): 4.57 µM
- growth at 0.01 µM [7]: 50%
- GI50 ([8]; read-out: GI50): 2.36 µM
- CC50 [8, 12]: > 100 µM
- TGI ([8]; read-out: TGI): 84 µM
- GI50 ([8]; read-out: pGI50 (converted)): 2.34 µM
- CC50 [8, 13]: > 100 µM
- TGI ([8]; read-out: pTGI (converted)): 8.51 µM
- growth at 1 µM [9]: 52%
- growth at 1 µM [10]: 85%
- growth at 0.01 µM [11]: 91%

Structure (SMILES): O=C(Nc1cccc(-n2cc(-c3ccncc3)c(-c3cc(O)cc(Cl)c3)n2)c1)c1cc(C(F)(F)F)cc(C(F)(F)F)c1
- growth at 100 µM [1]: 34%
- growth at 0.01 µM [2]: 104%
- GI50 ([3]; read-out: GI50): 2.32 µM
- CC50 [3, 12]: > 100 µM
- TGI ([3]; read-out: TGI): 57.4 µM
- GI50 ([3]; read-out: pGI50 (converted)): 2.34 µM
- CC50 [3, 13]: > 100 µM
- TGI ([3]; read-out: pTGI (converted)): 5.75 µM
- growth at 1 µM [4]: 103%
- GI50 ([5]; read-out: GI50): 4.58 µM
- CC50 [5, 12]: > 100 µM
- TGI ([5]; read-out: TGI): > 100 µM
- GI50 ([5]; read-out: pGI50 (converted)): 4.57 µM
- CC50 [5, 13]: > 100 µM
- TGI ([5]; read-out: pTGI (converted)): > 100 µM
- GI50 ([6]; read-out: GI50): 3.29 µM
- CC50 [6, 12]: > 100 µM
- TGI ([6]; read-out: TGI): 13.7 µM
- GI50 ([6]; read-out: pGI50 (converted)): 3.31 µM
- CC50 [6, 13]: > 100 µM
- TGI ([6]; read-out: pTGI (converted)): 13.8 µM
- growth at 0.01 µM [7]: 93%
- GI50 ([8]; read-out: GI50): 4.23 µM
- CC50 [8, 12]: > 100 µM
- TGI ([8]; read-out: TGI): 51.2 µM
- GI50 ([8]; read-out: pGI50 (converted)): 4.27 µM
- CC50 [8, 13]: > 100 µM
- TGI ([8]; read-out: pTGI (converted)): 51.3 µM
- growth at 1 µM [9]: 74%
- growth at 1 µM [10]: 100%
- growth at 0.01 µM [11]: 96%

Structure (SMILES): COc1cc(Cl)cc(-c2nn(-c3cccc(NC(=O)Nc4ccc(Cl)c(C(F)(F)F)c4)c3)cc2-c2ccncc2)c1
- growth at 100 µM [1]: -6%
- growth at 0.01 µM [2]: 103%
- GI50 ([3]; read-out: GI50): 1.53 µM
- CC50 [3, 12]: 6.33 µM
- TGI ([3]; read-out: TGI): 31.1 µM
- GI50 ([3]; read-out: pGI50 (converted)): 1.51 µM
- CC50 [3, 13]: 6.31 µM
- TGI ([3]; read-out: pTGI (converted)): 3.09 µM
- growth at 1 µM [4]: 87%
- GI50 ([5]; read-out: GI50): 1.77 µM
- CC50 [5, 12]: > 100 µM
- TGI ([5]; read-out: TGI): 11.5 µM
- GI50 ([5]; read-out: pGI50 (converted)): 1.78 µM
- CC50 [5, 13]: > 100 µM
- TGI ([5]; read-out: pTGI (converted)): 5.89 µM
- GI50 ([6]; read-out: GI50): 1.23 µM
- TGI ([6]; read-out: TGI): 31.4 µM
- GI50 ([6]; read-out: pGI50 (converted)): 1.23 µM
- growth at 0.01 µM [7]: 93%
- GI50 ([8]; read-out: GI50): 1.59 µM
- CC50 [8, 12]: 1.55 µM
- TGI ([8]; read-out: TGI): 49.3 µM
- GI50 ([8]; read-out: pGI50 (converted)): 1.91 µM
- CC50 [8, 13]: 18.6 µM
- TGI ([8]; read-out: pTGI (converted)): 2.95 µM
- growth at 1 µM [9]: 40%
- growth at 1 µM [10]: 84%
- growth at 0.01 µM [11]: 92%
